Source: patent US10815275B2, “Antimicrobial peptoids with improved selectivity and use thereof” (priority 2018, dated 2020)
Values after ≈ are worked out from the molar mass of the structure shown. Non-standard residues stand in square brackets, D forms with d. Residues, ends and D or L forms follow the SMILES beside them. Nspe = C[C@H](NCC(=O)O)c1ccccc1; Nphe = O=C(O)CNCc1ccccc1; Nlys = NCCCCNCC(=O)O

What was measured:
[1] = test system: S. aureus strain KCTC1621; assay type: cell-based; conditions: for MBC S. aureus: KCTC1621; for MIC S. aureus: KCTC1621, 18 h
Experimental: (§1) In order to measure antimicrobial activity of the peptoids, Gram-positive S. aureus strain KCTC1621, or Gram-negative E. coli strain ATCC25922 was treated with the peptoids prepared in Preparation Example 1, and minimum inhibitory concentrations were measured. Peptoid NOS. 1 and 2 are already known peptoids and were used for the purpose of making a comparison with novel peptoids in terms of antimicrobial activity.
(§2) Specifically, S. aureus strain KCTC1621 or E. coli strain ATCC25922 was inoculated into Mueller Hinton Broth (MHB2) liquid medium on which cations were adjusted, cultured at a temperature of 37° C. for 18 hours, and then subcultured for 4 hours. Thereafter, the strains were diluted with MHB2 liquid medium containing 0.2% bovine serum albumin and 0.01% acetic acid so that each bacterial number was 2×10^5 colony-forming units (CFU) per 1 mL, and dispensed into 96-well microtiter plates at 100 μL each. A peptoid stock which is 40-fold more concentrated than a concentration to be tested was added to each well at 2.5 μL or lower so that the peptoid stock was 2-fold serially diluted using sterile water. Thereafter, the plates were incubated at a temperature of 37° C. for 18 hours.
(§3) Thereafter, absorbance was measured at a wavelength of 600 nm using a microplate reader (Bio-Rad). The lowest peptoid concentration that completely suppresses growth of microorganisms was measured by a minimum inhibitory concentration (MIC) and a minimum bactericidal concentration (MBC), and the measurement results are shown in Table 5 below. Each of the MIC values was calculated as an average value of numerical values obtained through three independent experiments.

E. coli strain ATCC25922 = assay type: cell-based; conditions: for MBC E. coli: ATCC25922; for MIC E. coli: ATCC25922, 18 h
Experimental: as §1, §2, §3

red blood cells = assay: Hemolytic activity on red blood cells; assay type: cell-based, mouse
Experimental: In order to identify, through red blood cell hemolytic activity in mice, whether the peptoids synthesized in Preparation Example 1 are cytotoxic, red blood cells isolated from 10 mL of mouse blood were washed three times with phosphate-buffered saline (PBS, mixed solution of 35 mM phosphate buffer/150 mM NaCl, pH 7.4), and then centrifuged at a centrifugal force of 1,000 ×g for 10 minutes. A 10% (v/v) red blood cell solution diluted with PBS was dispensed into a 96-well microtiter plate at 150 μL each, and then a peptide solution was added at 50 μL each. Thereafter, the 96-well microtiter plate was incubated at a temperature of 37° C. for 1 hour.
The incubated 96-well microtiter plate was centrifuged at a centrifugal force of 1,000×g for 5 minutes. Thereafter, supernatant was taken at 100 μL each and transferred to a new 96-well microtiter plate. Then, absorbance at a wavelength of 540 nm was measured (Table 6).
In this case, a value obtained in a case of being treated with 0.1% (v/v) Triton X-100 was set as 100% hemolysis, and hemolytic activity (degree of cell destruction) of the peptoids was calculated using the following Equation 1. In the Equation 1, A is absorbance of the peptoid solution at a wavelength of 540 nm, B is absorbance of 0.1% Triton X-100 at a wavelength of 540 nm, and C is absorbance of the PBS solution at a wavelength of 540 nm. In this case, Peptoid NO. […] Degree of cell destruction (% hemolysis)=(A−C)/(B−C)[…] [Equation 1]
In Table 6, HD10 means a peptoid concentration which causes 10% hemolysis of red blood cells, and HD50 means a peptoid concentration which causes 50% hemolysis of red blood cells. In addition, Hmax is a hemolysis rate (%) at 200 μM which is the highest peptoid concentration used in the experiment.
Hemolytic activity of Peptoid NOS. 1, 18 to 23, and the peptide Pexiganan was measured in the same manner as in Experimental Example 2.

E. coli = assay: Selectivity analysis, HD10 divided by MIC for E. coli; conditions: HD10 of Table 6 divided by MIC for E. coli ATCC25922
Experimental: In order to identify changes in selectivity depending on alteration of degree of folding in helical structure of peptoids, selectivity of each peptoid was calculated using the resultant values measured in the Experimental Examples 1 and 2. The selectivity was obtained by dividing the HD10 value by the minimum inhibitory concentration for E. coli (Table 8).

## C[C@@H](c1ccccc1)N(CC(=O)N(CCCCN)CC(=O)N(CC(=O)N(CC(=O)N(CCCCN)CC(=O)N(CC(=O)N(CC(N)=O)Cc1ccccc1)Cc1ccccc1)Cc1ccccc1)Cc1ccccc1)C(=O)CN(Cc1ccccc1)C(=O)CN(CCCCN)C(=O)CN(Cc1ccccc1)C(=O)CN(Cc1ccccc1)C(=O)CNCCCCN [compound 6] (H-[Nlys][Nphe][Nphe][Nlys][Nphe][Nspe][Nlys][Nphe][Nphe][Nlys][Nphe][Nphe]-NH2)
[1]
  MBC S. aureus: 3.1 µM (≈ 5.34 µg/mL)
  MIC S. aureus: 3.1 µM (≈ 5.34 µg/mL)
E. coli strain ATCC25922
  MBC E. coli: 25 µM (≈ 43 µg/mL)
  MIC E. coli: 12.5 µM (≈ 21.5 µg/mL)
Red blood cells
  HD10: 101.4
  HD50: 185.4

## C[C@@H](c1ccccc1)N(CC(=O)N(CC(N)=O)Cc1ccccc1)C(=O)CN(CCCCN)C(=O)CN(Cc1ccccc1)C(=O)CN(Cc1ccccc1)C(=O)CN(CCCCN)C(=O)CN(Cc1ccccc1)C(=O)CN(Cc1ccccc1)C(=O)CN(CCCCN)C(=O)CN(Cc1ccccc1)C(=O)CN(Cc1ccccc1)C(=O)CNCCCCN [compound 9] (H-[Nlys][Nphe][Nphe][Nlys][Nphe][Nphe][Nlys][Nphe][Nphe][Nlys][Nspe][Nphe]-NH2)
[1]
  MBC S. aureus: 3.1 µM (≈ 5.34 µg/mL)
  MIC S. aureus: 3.1 µM (≈ 5.34 µg/mL)
E. coli strain ATCC25922
  MBC E. coli: 25 µM (≈ 43 µg/mL)
  MIC E. coli: 12.5 µM (≈ 21.5 µg/mL)
E. coli
  Selectivity [HD10/MIC (E. coli)]: 4.3
Red blood cells
  HD10: 54.4
  HD50: > 200

## C[C@@H](c1ccccc1)N(CC(=O)N(CCCCN)CC(=O)N(CC(=O)N(CC(N)=O)Cc1ccccc1)Cc1ccccc1)C(=O)CN(Cc1ccccc1)C(=O)CN(CCCCN)C(=O)CN(Cc1ccccc1)C(=O)CN(Cc1ccccc1)C(=O)CN(CCCCN)C(=O)CN(Cc1ccccc1)C(=O)CN(Cc1ccccc1)C(=O)CNCCCCN [compound 8] (H-[Nlys][Nphe][Nphe][Nlys][Nphe][Nphe][Nlys][Nphe][Nspe][Nlys][Nphe][Nphe]-NH2)
[1]
  MBC S. aureus: 3.1 µM (≈ 5.34 µg/mL)
  MIC S. aureus: 3.1 µM (≈ 5.34 µg/mL)
E. coli strain ATCC25922
  MBC E. coli: 25 µM (≈ 43 µg/mL)
  MIC E. coli: 12.5 µM (≈ 21.5 µg/mL)
E. coli
  Selectivity [HD10/MIC (E. coli)]: 7.1
Red blood cells
  HD10: 88.5
  HD50: > 200

## C[C@@H](c1ccccc1)N(CC(=O)N(CC(=O)N(CCCCN)CC(=O)N(CC(=O)N(CC(=O)N(CCCCN)CC(=O)N(CC(=O)N(CC(=O)N(CCCCN)CC(=O)N(CC(=O)N(CC(N)=O)Cc1ccccc1)Cc1ccccc1)Cc1ccccc1)Cc1ccccc1)Cc1ccccc1)Cc1ccccc1)Cc1ccccc1)C(=O)CNCCCCN [compound 3] (H-[Nlys][Nspe][Nphe][Nlys][Nphe][Nphe][Nlys][Nphe][Nphe][Nlys][Nphe][Nphe]-NH2)
[1]
  MBC S. aureus: 3.1 µM (≈ 5.34 µg/mL)
  MIC S. aureus: 3.1 µM (≈ 5.34 µg/mL)
E. coli strain ATCC25922
  MBC E. coli: 25 µM (≈ 43 µg/mL)
  MIC E. coli: 25 µM (≈ 43 µg/mL)
E. coli
  Selectivity [HD10/MIC (E. coli)]: 4.5
Red blood cells
  HD10: 112.7
  HD50: > 200

## C[C@@H](c1ccccc1)N(CC(N)=O)C(=O)CN(C(=O)CN(CCCCN)C(=O)CN(Cc1ccccc1)C(=O)CN(Cc1ccccc1)C(=O)CN(CCCCN)C(=O)CN(Cc1ccccc1)C(=O)CN(Cc1ccccc1)C(=O)CN(CCCCN)C(=O)CN(Cc1ccccc1)C(=O)CN(C(=O)CNCCCCN)[C@@H](C)c1ccccc1)[C@@H](C)c1ccccc1 [compound 14]
[1]
  MBC S. aureus: 1.6 µM (≈ 2.8 µg/mL)
  MIC S. aureus: 1.6 µM (≈ 2.8 µg/mL)
E. coli strain ATCC25922
  MBC E. coli: 12.5 µM (≈ 21.9 µg/mL)
  MIC E. coli: 12.5 µM (≈ 21.9 µg/mL)
E. coli
  Selectivity [HD10/MIC (E. coli)]: 4.3
Red blood cells
  HD10: 53.9
  HD50: 199.6

## C[C@@H](c1ccccc1)N(CC(N)=O)C(=O)CN(Cc1ccccc1)C(=O)CN(CCCCN)C(=O)CN(Cc1ccccc1)C(=O)CN(Cc1ccccc1)C(=O)CN(CCCCN)C(=O)CN(Cc1ccccc1)C(=O)CN(Cc1ccccc1)C(=O)CN(CCCCN)C(=O)CN(Cc1ccccc1)C(=O)CN(C(=O)CNCCCCN)[C@@H](C)c1ccccc1 [compound 12]
[1]
  MBC S. aureus: 3.1 µM (≈ 5.38 µg/mL)
  MIC S. aureus: 3.1 µM (≈ 5.38 µg/mL)
E. coli strain ATCC25922
  MBC E. coli: 25 µM (≈ 43.4 µg/mL)
  MIC E. coli: 12.5 µM (≈ 21.7 µg/mL)
E. coli
  Selectivity [HD10/MIC (E. coli)]: 6.4
Red blood cells
  HD10: 79.7
  HD50: > 200

## C[C@@H](c1ccccc1)N(CC(=O)N(CC(=O)N(CCCCN)CC(=O)N(CC(=O)N(CC(=O)N(CCCCN)CC(=O)N(CC(=O)N(CC(N)=O)Cc1ccccc1)Cc1ccccc1)Cc1ccccc1)Cc1ccccc1)Cc1ccccc1)C(=O)CN(CCCCN)C(=O)CN(Cc1ccccc1)C(=O)CN(Cc1ccccc1)C(=O)CNCCCCN [compound 5] (H-[Nlys][Nphe][Nphe][Nlys][Nspe][Nphe][Nlys][Nphe][Nphe][Nlys][Nphe][Nphe]-NH2)
[1]
  MBC S. aureus: 3.1 µM (≈ 5.34 µg/mL)
  MIC S. aureus: 3.1 µM (≈ 5.34 µg/mL)
E. coli strain ATCC25922
  MBC E. coli: 12.5 µM (≈ 21.5 µg/mL)
  MIC E. coli: 12.5 µM (≈ 21.5 µg/mL)
Red blood cells
  HD50: 195.0

## C[C@@H](c1ccccc1)N(CC(=O)N(CCCCN)CC(=O)N(CC(=O)N(CC(=O)N(CCCCN)CC(=O)N(CC(=O)N(CC(N)=O)Cc1ccccc1)Cc1ccccc1)[C@@H](C)c1ccccc1)[C@@H](C)c1ccccc1)C(=O)CN(C(=O)CN(CCCCN)C(=O)CN(Cc1ccccc1)C(=O)CN(Cc1ccccc1)C(=O)CNCCCCN)[C@@H](C)c1ccccc1 [compound 16] (H-[Nlys][Nphe][Nphe][Nlys][Nspe][Nspe][Nlys][Nspe][Nspe][Nlys][Nphe][Nphe]-NH2)
[1]
  MBC S. aureus: 3.1 µM (≈ 5.47 µg/mL)
  MIC S. aureus: 1.6 µM (≈ 2.82 µg/mL)
E. coli strain ATCC25922
  MBC E. coli: 6.3 µM (≈ 11.1 µg/mL)
Red blood cells
  HD10: 53.0
  HD50: > 200

## C[C@@H](c1ccccc1)N(CC(N)=O)C(=O)CN(Cc1ccccc1)C(=O)CN(CCCCN)C(=O)CN(Cc1ccccc1)C(=O)CN(Cc1ccccc1)C(=O)CN(CCCCN)C(=O)CN(Cc1ccccc1)C(=O)CN(Cc1ccccc1)C(=O)CN(CCCCN)C(=O)CN(Cc1ccccc1)C(=O)CN(Cc1ccccc1)C(=O)CNCCCCN [compound 10]
[1]
  MBC S. aureus: 3.1 µM (≈ 5.34 µg/mL)
  MIC S. aureus: 3.1 µM (≈ 5.34 µg/mL)
E. coli strain ATCC25922
  MBC E. coli: 25 µM (≈ 43 µg/mL)
  MIC E. coli: 12.5 µM (≈ 21.5 µg/mL)
Red blood cells
  HD10: 103.3
  HD50: > 200

## C[C@@H](c1ccccc1)N(CC(=O)N(CC(=O)N(CCCCN)CC(=O)N(CC(=O)N(CC(N)=O)Cc1ccccc1)Cc1ccccc1)Cc1ccccc1)C(=O)CN(CCCCN)C(=O)CN(Cc1ccccc1)C(=O)CN(Cc1ccccc1)C(=O)CN(CCCCN)C(=O)CN(Cc1ccccc1)C(=O)CN(Cc1ccccc1)C(=O)CNCCCCN [compound 7] (H-[Nlys][Nphe][Nphe][Nlys][Nphe][Nphe][Nlys][Nspe][Nphe][Nlys][Nphe][Nphe]-NH2)
[1]
  MBC S. aureus: 3.1 µM (≈ 5.34 µg/mL)
  MIC S. aureus: 3.1 µM (≈ 5.34 µg/mL)
E. coli strain ATCC25922
  MBC E. coli: 25 µM (≈ 43 µg/mL)
  MIC E. coli: 12.5 µM (≈ 21.5 µg/mL)
Red blood cells
  HD50: > 200
